From ChEMBL document CHEMBL5360558, “Molecular design, synthesis and anticancer activity of new thiopyrano[2,3-d]thiazoles based on 5-hydroxy-1,4-naphthoquinone (juglone)” (Eur J Med Chem, 2023)
Active and inactive are the calls of the source. The rule behind the calls is not given here.

Legend:
M14 [1] = experiment: Growth inhibition against human M14 cells assessed as total growth inhibitory concentration incubated for 48 hrs by sulforhodamine B spectrophotometric assay; assay type: functional
UACC-62 = experiment: Growth inhibition of human UACC-62 cells incubated for 48 hrs by sulforhodamine B spectrophotometric assay; assay type: functional
M14 [2] = experiment: Anticancer activity against human M14 cells assessed as cell growth at 10 uM incubated for 48 hrs by sulforhodamine B assay; assay type: functional; conditions: read-out: Activity
SF-539 [3] = experiment: Growth inhibition against human SF-539 cells assessed as total growth inhibitory concentration incubated for 48 hrs by sulforhodamine B spectrophotometric assay; assay type: functional
SF-295 = experiment: Growth inhibition against human SF-295 cells assessed as lethal concentration incubated for 48 hrs by sulforhodamine B spectrophotometric assay; assay type: functional; conditions: read-out: LC50 (the source's name)
A549 = experiment: Growth inhibition against human A549 cells assessed as total growth inhibitory concentration incubated for 48 hrs by sulforhodamine B spectrophotometric assay; assay type: functional
RPMI-8226 = experiment: Growth inhibition against human RPMI-8226 cells assessed as lethal concentration incubated for 48 hrs by sulforhodamine B spectrophotometric assay; assay type: functional; conditions: read-out: LC50 (the source's name)
UACC-257 = experiment: Growth inhibition of human UACC-257 cells incubated for 48 hrs by sulforhodamine B spectrophotometric assay; assay type: functional
NCI-H522 = experiment: Growth inhibition against human NCI-H522 cells assessed as total growth inhibitory concentration incubated for 48 hrs by sulforhodamine B spectrophotometric assay; assay type: functional
IGROV-1 = experiment: Growth inhibition against human IGROV-1 cells assessed as lethal concentration incubated for 48 hrs by sulforhodamine B spectrophotometric assay; assay type: functional; conditions: read-out: LC50 (the source's name)
786-0 = experiment: Growth inhibition against human 786-0 cells assessed as lethal concentration incubated for 48 hrs by sulforhodamine B spectrophotometric assay; assay type: functional; conditions: read-out: LC50 (the source's name)
MCF7 [4] = experiment: Growth inhibition against human MCF7 cells assessed as total growth inhibitory concentration incubated for 48 hrs by sulforhodamine B spectrophotometric assay; assay type: functional
SN12C = experiment: Growth inhibition against human SN12C cells assessed as lethal concentration incubated for 48 hrs by sulforhodamine B spectrophotometric assay; assay type: functional; conditions: read-out: LC50 (the source's name)
MDA-MB-231 [5] = experiment: Growth inhibition against human MDA-MB-231 cells assessed as lethal concentration incubated for 48 hrs by sulforhodamine B spectrophotometric assay; assay type: functional; conditions: read-out: LC50 (the source's name)
T47D = experiment: Growth inhibition of human T47D cells incubated for 48 hrs by sulforhodamine B spectrophotometric assay; assay type: functional
Jurkat = experiment: Induction of apoptosis in human Jurkat cells assessed as necrotic cells at 25 uM by DNA laddering assay; assay type: functional, cell-based
A498 = experiment: Growth inhibition against human A498 cells assessed as total growth inhibitory concentration incubated for 48 hrs by sulforhodamine B spectrophotometric assay; assay type: functional
NCI/ADR-RES = experiment: Growth inhibition of human NCI/ADR-RES cells incubated for 48 hrs by sulforhodamine B spectrophotometric assay; assay type: functional
ACHN = experiment: Growth inhibition of human ACHN cells incubated for 48 hrs by sulforhodamine B spectrophotometric assay; assay type: functional
MCF7 [6] = experiment: Cytotoxicity against human MCF7 cells assessed as cell growth inhibition incubated for 72 hrs by MTT assay; assay type: functional, cell-based; conditions: MCF7, 72 h
K562 = experiment: Growth inhibition of human K562 cells incubated for 48 hrs by sulforhodamine B spectrophotometric assay; assay type: functional
OVCAR-5 [7] = experiment: Growth inhibition against human OVCAR-5 cells assessed as total growth inhibitory concentration incubated for 48 hrs by sulforhodamine B spectrophotometric assay; assay type: functional
[8] = Cytotoxicity against mouse J774.2 cells assessed as cell growth inhibition incubated for 72 hrs by MTT assay; assay type: toxicity, cell-based
HCT-116 [9] = experiment: Growth inhibition of human HCT-116 cells incubated for 48 hrs by sulforhodamine B spectrophotometric assay; assay type: functional
NCI-H226 = experiment: Growth inhibition of human NCI-H226 cells incubated for 48 hrs by sulforhodamine B spectrophotometric assay; assay type: functional
HT-29 = experiment: Growth inhibition against human HT-29 cells assessed as total growth inhibitory concentration incubated for 48 hrs by sulforhodamine B spectrophotometric assay; assay type: functional
KM12 = experiment: Growth inhibition of human KM12 cells incubated for 48 hrs by sulforhodamine B spectrophotometric assay; assay type: functional
MDA-MB-468 = experiment: Growth inhibition against human MDA-MB-468 cells assessed as lethal concentration incubated for 48 hrs by sulforhodamine B spectrophotometric assay; assay type: functional; conditions: read-out: LC50 (the source's name)
HCT-116 [10] = experiment: Growth inhibition against human HCT-116 cells assessed as total growth inhibitory concentration incubated for 48 hrs by sulforhodamine B spectrophotometric assay; assay type: functional
TK-10 [11] = experiment: Growth inhibition against human TK-10 cells assessed as lethal concentration incubated for 48 hrs by sulforhodamine B spectrophotometric assay; assay type: functional; conditions: read-out: LC50 (the source's name)
SF-539 [12] = experiment: Growth inhibition of human SF-539 cells incubated for 48 hrs by sulforhodamine B spectrophotometric assay; assay type: functional
MDA-MB-231 [13] = experiment: Induction of apoptosis in human MDA-MB-231 cells assessed as increase in caspase-9 level at 10 uM incubated for 24 hrs by flow cytometry analysis; assay type: functional
UO-31 = experiment: Growth inhibition against human UO-31 cells assessed as total growth inhibitory concentration incubated for 48 hrs by sulforhodamine B spectrophotometric assay; assay type: functional
EKVX = experiment: Growth inhibition against human EKVX cells assessed as total growth inhibitory concentration incubated for 48 hrs by sulforhodamine B spectrophotometric assay; assay type: functional
M14 [14] = experiment: Growth inhibition of human M14 cells incubated for 48 hrs by sulforhodamine B spectrophotometric assay; assay type: functional
OVCAR-4 = experiment: Growth inhibition of human OVCAR-4 cells incubated for 48 hrs by sulforhodamine B spectrophotometric assay; assay type: functional
SW-620 = experiment: Growth inhibition against human SW620 cells assessed as lethal concentration incubated for 48 hrs by sulforhodamine B spectrophotometric assay; assay type: functional; conditions: read-out: LC50 (the source's name)
CCRF-CEM = experiment: Growth inhibition of human CCRF-CEM cells incubated for 48 hrs by sulforhodamine B spectrophotometric assay; assay type: functional
OVCAR-5 [15] = experiment: Growth inhibition against human OVCAR-5 cells assessed as lethal concentration incubated for 48 hrs by sulforhodamine B spectrophotometric assay; assay type: functional; conditions: read-out: LC50 (the source's name)
MCF7 [16] = experiment: Growth inhibition of human MCF7 cells incubated for 48 hrs by sulforhodamine B spectrophotometric assay; assay type: functional
TK-10 [17] = experiment: Growth inhibition of human TK-10 cells incubated for 48 hrs by sulforhodamine B spectrophotometric assay; assay type: functional
HCC 2998 = experiment: Growth inhibition against human HCC 2998 cells assessed as lethal concentration incubated for 48 hrs by sulforhodamine B spectrophotometric assay; assay type: functional; conditions: read-out: LC50 (the source's name)
KB 3-1 = experiment: Induction of apoptosis in human KB 3-1 cells assessed as increase in calnexin protein expression at 0.5 to 5 uM incubated for 3 hrs by Western blotting assay; assay type: functional, cell-based; conditions: dose 0.5-5 µM
MCF7 [18] = experiment: Growth inhibition against human MCF7 cells assessed as lethal concentration incubated for 48 hrs by sulforhodamine B spectrophotometric assay; assay type: functional; conditions: read-out: LC50 (the source's name)
SK-MEL-5 = experiment: Growth inhibition of human SK-MEL-5 cells incubated for 48 hrs by sulforhodamine B spectrophotometric assay; assay type: functional
MDA-MB-231 [19] = experiment: Induction of apoptosis in human MDA-MB-231 cells assessed as increase in caspase-8 level at 5 uM incubated for 24 hrs by flow cytometry analysis; assay type: functional
[20] = Cytotoxicity against mouse NIH3T3 cells assessed as cell growth inhibition incubated for 72 hrs by MTT assay; assay type: toxicity, cell-based
OVCAR-3 = experiment: Growth inhibition of human OVCAR-3 cells incubated for 48 hrs by sulforhodamine B spectrophotometric assay; assay type: functional

O=C1C2=C(C(=O)c3c(O)cccc31)C(c1ccco1)c1sc(=O)[nH]c1S2 (stereo not drawn)
TGI (M14 [1]): 2.37 µM | GI50 (UACC-62): 1.76 µM | growth at 10 µM (M14 [2]): -97.6% | TGI (SF-539 [3]): 3.69 µM | CC50 (SF-295): 6.5 µM | TGI (A549): 3.63 µM | CC50 (RPMI-8226): > 100 µM | GI50 (UACC-257): 1.57 µM | TGI (NCI-H522): 6.99 µM | CC50 (IGROV-1): 38 µM | CC50 (786-0): 71.2 µM | TGI (MCF7 [4]): 3.34 µM | CC50 (SN12C): 6.99 µM | CC50 (MDA-MB-231 [5]): > 100 µM | GI50 (T47D): 2.87 µM | Activity (Jurkat): Active | TGI (A498): 9.69 µM | GI50 (NCI/ADR-RES): 3.02 µM | GI50 (ACHN): 4.08 µM | IC50 (MCF7 [6]): 3.08 µM | GI50 (K562): 2.84 µM | TGI (OVCAR-5 [7]): 4.58 µM | IC50 at 72 h [8]: 2.59 µM | GI50 (HCT-116 [9]): 2.37 µM | GI50 (NCI-H226): 2.18 µM | TGI (HT-29): 9.25 µM | GI50 (KM12): 3.71 µM | CC50 (MDA-MB-468): > 100 µM | TGI (HCT-116 [10]): > 100 µM | CC50 (TK-10 [11]): 56.4 µM | GI50 (SF-539 [12]): 1.93 µM | Activity (MDA-MB-231 [13]): 32.6% | TGI (UO-31): 13.5 µM | TGI (EKVX): 19.4 µM | GI50 (M14 [14]): 1.06 µM | GI50 (OVCAR-4): 1.79 µM | CC50 (SW-620): 52.7 µM | GI50 (CCRF-CEM): 3.29 µM | CC50 (OVCAR-5 [15]): 9.85 µM | GI50 (MCF7 [16]): 1.39 µM | GI50 (TK-10 [17]): 12.3 µM | CC50 (HCC 2998): 18.4 µM | Activity (KB 3-1): inactive | CC50 (MCF7 [18]): 8.04 µM | GI50 (SK-MEL-5): 1.59 µM | Activity (MDA-MB-231 [19]): 19.5% | IC50 at 72 h [20]: 6.07 µM | GI50 (OVCAR-3): 2.86 µM
